Assays:
Format in all cases: cell-based, mouse
[1] = system: β-galactosidase in CMV-LacZ C2C12 myotubes; test: CMV-LacZ secondary screen in C2C12 myotubes (β-Gal stabilizing assay); conditions: C2C12 CMV-LacZ myotubes, fold relative to DMSO
Procedure, shortened: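 β-gal stabilization was measured in C2C12 myoblasts or myotubes stably transfected with a CMV-driven LacZ construct, using the FDG β-gal assay. Compounds were tested in dose-response at 0.5, 1, 5, 10, 20 and 40 μM, with two replicates per point.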

[2] = system: β-galactosidase in CMV-LacZ C2C12 myoblasts; test: CMV-LacZ secondary screen in C2C12 myoblasts (β-Gal stabilizing assay); conditions: CMV-LacZ C2C12 myoblasts
Procedure, shortened: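 C2C12 myoblasts stably carrying a linearized CMV-driven LacZ construct, clone chosen by β-gal level in the myoblast FDG assay. Compounds tested in 96-well dose-response at 0.5, 1, 5, 10, 20 and 40 μM, N=2 replicates per point, to detect β-gal stabilization.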

[3] = system: α7 integrin (LacZ reporter in α7+/LacZ myotubes); test: Myotube α7 integrin FDG assay (Burkin assay in myotubes, 96-well); conditions: myotubes
[4] = system: α7 integrin (LacZ reporter in α7βgal+/− myoblasts); test: Myoblast α7+/LacZ integrin FDG assay (Burkin assay in myoblasts, 96-well); conditions: α7+/LacZ myoblasts, 96-well

Row | SMILES | CMV-LACZ in Myotubes, signal relative to DMSO ([1]; 0.5 uM) | CMV-LACZ in Myotubes, signal relative to DMSO ([1]; 1 uM) | CMV-LACZ in Myotubes, signal relative to DMSO ([1]; 5 uM) | CMV-LACZ in Myotubes, signal relative to DMSO ([1]; 10 uM) | CMV-LACZ in Myotubes, signal relative to DMSO ([1]; 20 uM) | CMV-LACZ in Myotubes, signal relative to DMSO ([1]; 40 uM) | CMV-LACZ in Myoblasts (β-galactosidase activity relative to DMSO) ([2]; 0.5 uM) | CMV-LACZ in Myoblasts (β-galactosidase activity relative to DMSO) ([2]; 1 uM) | CMV-LACZ in Myoblasts (β-galactosidase activity relative to DMSO) ([2]; 5 uM) | CMV-LACZ in Myoblasts (β-galactosidase activity relative to DMSO) ([2]; 10 uM) | CMV-LACZ in Myoblasts (β-galactosidase activity relative to DMSO) ([2]; 20 uM) | CMV-LACZ in Myoblasts (β-galactosidase activity relative to DMSO) ([2]; 40 uM) | Burkin Assay in Myotubes, α7 integrin LacZ reporter signal relative to DMSO ([3]; 0.5 uM) | Burkin Assay in Myotubes, α7 integrin LacZ reporter signal relative to DMSO ([3]; 1 uM) | Burkin Assay in Myotubes, α7 integrin LacZ reporter signal relative to DMSO ([3]; 5 uM) | Burkin Assay in Myotubes, α7 integrin LacZ reporter signal relative to DMSO ([3]; 10 uM) | Burkin Assay in Myotubes, α7 integrin LacZ reporter signal relative to DMSO ([3]; 20 uM) | Burkin Assay in Myotubes, α7 integrin LacZ reporter signal relative to DMSO ([3]; 40 uM) | Burkin Assay in Myoblasts, signal relative to DMSO ([4]; 0.5 uM) | Burkin Assay in Myoblasts, signal relative to DMSO ([4]; 1 uM) | other results
1 | CCOn1c(=O)c(-c2ccccc2)[n+]([O-])c2ccccc21 [MLS001197220-01] | 0.8896 | 0.9356 | 0.9682 | 0.9289 | 0.9659 | 1.0271 | 1.2028 | 1.1569 | 0.9355 | 1.1383 | 0.9567 | 1.2844 | 1.327 | 1.3061 | 1.254 | 1.004 | 0.9 | 0.831 | 1.2811 | 1.286 | Burkin Assay in Myoblasts, signal relative to DMSO ([4]; 5 uM): 1.843; Burkin Assay in Myoblasts, signal relative to DMSO ([4]; 10 uM): 0.9218; Burkin Assay in Myoblasts, signal relative to DMSO ([4]; 20 uM): 1.111; Burkin Assay in Myoblasts, signal relative to DMSO ([4]; 40 uM): 1.0836
2 | COC(=O)c1ccc(N=Nc2ccccc2)cc1 [MLS001005712-01] | 1.0684 | 1.0379 | 0.9623 | 0.8075 | 1.1133 | 1.3167 | 1.0188 | 1.2385 | 0.8934 | 0.9125 | 1.0241 | 1.0230 | 0.8704 | 1.173 | 0.9472 | 0.939 | 0.7885 | 0.7405 | 1.1047 | 1.17 | Burkin Assay in Myoblasts, signal relative to DMSO ([4]; 5 uM): 0.926; Burkin Assay in Myoblasts, signal relative to DMSO ([4]; 10 uM): 0.8783; Burkin Assay in Myoblasts, signal relative to DMSO ([4]; 20 uM): 0.8763; Burkin Assay in Myoblasts, signal relative to DMSO ([4]; 40 uM): 0.764
3 | CCCCNc1nnc(Cc2ccc(Cl)cc2)c(=O)[nH]1 [MLS001215795-01] | 0.9363 | 1.0207 | 0.9309 | 1.0250 | 1.3929 | 1.1035 | 0.8003 | 1.1375 | 1.0974 | 0.8628 | 0.8196 | 0.8256 | 1.291 | 1.191 | 0.863 | 0.9107 | 0.9147 | 0.8873 | 1.143 | 1.207 | Burkin Assay in Myoblasts, signal relative to DMSO ([4]; 5 uM): 0.932; Burkin Assay in Myoblasts, signal relative to DMSO ([4]; 10 uM): 0.7776; Burkin Assay in Myoblasts, signal relative to DMSO ([4]; 20 uM): 0.741; Burkin Assay in Myoblasts, signal relative to DMSO ([4]; 40 uM): 0.7187

— patent publication US9980943B2, “Methods of treating muscular dystrophy” (BOARD OF REGENTS OF THE NEVADA SYSTEM OF HIGHER EDUCATION, …, priority 2013, dated 2018)
